Measured values: ChEMBL document CHEMBL4507259 (2021)

Assays:
[1] = target: 5-hydroxytryptamine receptor 2B (Homo sapiens, UniProt P41595); assay: 5-HT2B (h) CEREP ligand profiling; conditions: filed as agonist, Compound concentration 10.0 uM
[2] = target: Prostaglandin E2 receptor EP2 subtype (Homo sapiens) (UniProt P43116); assay: EP2 (h) CEREP ligand profiling; conditions: filed as agonist, Compound concentration 10.0 uM
[3] = target: Substance-K receptor (Homo sapiens) (UniProt P21452); assay: NK2 (h) CEREP ligand profiling; conditions: filed as agonist, Compound concentration 10.0 uM
[4] = target: Muscarinic acetylcholine receptor M3 (Homo sapiens) (UniProt P20309); assay: M3 (h) CEREP ligand profiling; conditions: filed as antagonist, Compound concentration 10.0 uM
[5] = target: Activin receptor type-1-like (Homo sapiens) (UniProt P37023); conditions: Compound concentration 1000.0 nM
[6] = target: RAC-beta serine/threonine-protein kinase (Homo sapiens) (UniProt P31751); conditions: Compound concentration 1000.0 nM
[7] = target: BMP-2-inducible protein kinase (Homo sapiens) (UniProt Q9NSY1); conditions: Compound concentration 1000.0 nM
[8] = target: Mitotic checkpoint serine/threonine-protein kinase BUB1 (Homo sapiens) (UniProt O43683); conditions: Compound concentration 1000.0 nM
[9] = target: Calcium/calmodulin-dependent protein kinase type 1 (Homo sapiens) (UniProt Q14012); conditions: Compound concentration 1000.0 nM
[10] = target: Dual specificity protein kinase CLK1 (Homo sapiens) (UniProt P49759); conditions: Compound concentration 1000.0 nM
[11] = target: Myotonin-protein kinase (Homo sapiens) (UniProt Q09013); conditions: Compound concentration 1000.0 nM
[12] = tested on: Epidermal growth factor receptor (Homo sapiens), P00533 [UNDEFINED MUTATION]; conditions: Compound concentration 1000.0 nM
[13] = target: Ephrin type-B receptor 3 (Homo sapiens) (UniProt P54753); conditions: Compound concentration 1000.0 nM
[14] = tested on: Mast/stem cell growth factor receptor Kit (Homo sapiens), P10721 [L576P]; conditions: Compound concentration 1000.0 nM
[15] = target: Serine/threonine-protein kinase MAK (Homo sapiens) (UniProt P20794); conditions: Compound concentration 1000.0 nM
[16] = target: Mitogen-activated protein kinase kinase kinase kinase 4 (Homo sapiens) (UniProt O95819); conditions: Compound concentration 1000.0 nM
[17] = target: MAP/microtubule affinity-regulating kinase 4 (Homo sapiens) (UniProt Q96L34); conditions: Compound concentration 1000.0 nM
[18] = target: Hepatocyte growth factor receptor (Homo sapiens) (UniProt P08581); conditions: Compound concentration 1000.0 nM
[19] = target: Myosin light chain kinase, smooth muscle (Homo sapiens) (UniProt Q15746); conditions: Compound concentration 1000.0 nM
[20] = target: Serine/threonine-protein kinase Nek10 (Homo sapiens) (UniProt Q6ZWH5); conditions: Compound concentration 1000.0 nM
[21] = target: Serine/threonine-protein kinase PLK1 (Homo sapiens) (UniProt P53350); conditions: Compound concentration 1000.0 nM
[22] = target: Serine/threonine-protein kinase PLK4 (Homo sapiens) (UniProt O00444); conditions: Compound concentration 1000.0 nM
[23] = target: TRAF2 and NCK-interacting protein kinase (Homo sapiens) (UniProt Q9UKE5); conditions: Compound concentration 1000.0 nM
[24] = target: Dual specificity protein kinase TTK (Homo sapiens) (UniProt P33981); conditions: Compound concentration 1000.0 nM
[25] = target: Wee1-like protein kinase (Homo sapiens) (UniProt P30291); conditions: Compound concentration 1000.0 nM
[26] = target: Tyrosine-protein kinase ZAP-70 (Homo sapiens) (UniProt P43403); conditions: Compound concentration 1000.0 nM
[27] = target: 5-hydroxytryptamine receptor 1D (Homo sapiens) (UniProt P28221); conditions: Compound concentration 10.0 uM
[28] = target: T1, 5-hydroxytryptamine receptor 2C (Homo sapiens) (UniProt P28335); conditions: Compound concentration 10.0 uM
T1 sequence (whole entry): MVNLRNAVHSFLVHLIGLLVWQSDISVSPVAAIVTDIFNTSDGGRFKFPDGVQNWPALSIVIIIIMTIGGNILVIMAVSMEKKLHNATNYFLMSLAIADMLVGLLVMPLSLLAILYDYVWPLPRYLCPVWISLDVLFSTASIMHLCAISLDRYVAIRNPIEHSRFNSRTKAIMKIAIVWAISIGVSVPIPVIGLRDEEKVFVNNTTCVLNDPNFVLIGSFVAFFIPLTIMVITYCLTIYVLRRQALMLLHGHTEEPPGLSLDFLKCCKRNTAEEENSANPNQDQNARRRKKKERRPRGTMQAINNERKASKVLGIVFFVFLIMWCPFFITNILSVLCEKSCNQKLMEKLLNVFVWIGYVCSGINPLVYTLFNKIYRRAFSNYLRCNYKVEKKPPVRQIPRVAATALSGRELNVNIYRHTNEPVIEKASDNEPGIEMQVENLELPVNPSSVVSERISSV

[29] = target: Sodium-dependent dopamine transporter (Homo sapiens, UniProt Q01959); conditions: Compound concentration 10.0 uM
[30] = target: T2, Muscarinic acetylcholine receptor M4 (Homo sapiens) (UniProt P08173); conditions: Compound concentration 10.0 uM
T2 sequence (whole entry): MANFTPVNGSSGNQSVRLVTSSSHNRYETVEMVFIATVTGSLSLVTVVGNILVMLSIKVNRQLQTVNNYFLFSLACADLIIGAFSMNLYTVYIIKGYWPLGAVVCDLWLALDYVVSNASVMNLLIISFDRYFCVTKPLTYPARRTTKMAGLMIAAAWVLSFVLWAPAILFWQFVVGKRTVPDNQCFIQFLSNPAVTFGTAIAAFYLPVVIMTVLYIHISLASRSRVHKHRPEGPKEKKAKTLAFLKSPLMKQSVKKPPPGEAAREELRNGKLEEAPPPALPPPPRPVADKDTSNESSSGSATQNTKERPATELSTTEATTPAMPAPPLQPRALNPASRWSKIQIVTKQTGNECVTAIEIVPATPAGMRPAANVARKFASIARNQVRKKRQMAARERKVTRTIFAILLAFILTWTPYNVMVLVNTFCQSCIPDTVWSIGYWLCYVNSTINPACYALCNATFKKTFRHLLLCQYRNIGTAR

[31] = target: GABA-A receptor; anion channel (Rattus norvegicus) (UniProt O09028+P15431+P18506+P18508+P19969+P20236+P23574+P23576+P28471+P28473+P30191+P62813+P63079+P63138+Q91ZM7+Q9ES14); conditions: Compound concentration 10.0 uM

Chain of Hepatocyte growth factor receptor (Homo sapiens) (P08581 whole entry): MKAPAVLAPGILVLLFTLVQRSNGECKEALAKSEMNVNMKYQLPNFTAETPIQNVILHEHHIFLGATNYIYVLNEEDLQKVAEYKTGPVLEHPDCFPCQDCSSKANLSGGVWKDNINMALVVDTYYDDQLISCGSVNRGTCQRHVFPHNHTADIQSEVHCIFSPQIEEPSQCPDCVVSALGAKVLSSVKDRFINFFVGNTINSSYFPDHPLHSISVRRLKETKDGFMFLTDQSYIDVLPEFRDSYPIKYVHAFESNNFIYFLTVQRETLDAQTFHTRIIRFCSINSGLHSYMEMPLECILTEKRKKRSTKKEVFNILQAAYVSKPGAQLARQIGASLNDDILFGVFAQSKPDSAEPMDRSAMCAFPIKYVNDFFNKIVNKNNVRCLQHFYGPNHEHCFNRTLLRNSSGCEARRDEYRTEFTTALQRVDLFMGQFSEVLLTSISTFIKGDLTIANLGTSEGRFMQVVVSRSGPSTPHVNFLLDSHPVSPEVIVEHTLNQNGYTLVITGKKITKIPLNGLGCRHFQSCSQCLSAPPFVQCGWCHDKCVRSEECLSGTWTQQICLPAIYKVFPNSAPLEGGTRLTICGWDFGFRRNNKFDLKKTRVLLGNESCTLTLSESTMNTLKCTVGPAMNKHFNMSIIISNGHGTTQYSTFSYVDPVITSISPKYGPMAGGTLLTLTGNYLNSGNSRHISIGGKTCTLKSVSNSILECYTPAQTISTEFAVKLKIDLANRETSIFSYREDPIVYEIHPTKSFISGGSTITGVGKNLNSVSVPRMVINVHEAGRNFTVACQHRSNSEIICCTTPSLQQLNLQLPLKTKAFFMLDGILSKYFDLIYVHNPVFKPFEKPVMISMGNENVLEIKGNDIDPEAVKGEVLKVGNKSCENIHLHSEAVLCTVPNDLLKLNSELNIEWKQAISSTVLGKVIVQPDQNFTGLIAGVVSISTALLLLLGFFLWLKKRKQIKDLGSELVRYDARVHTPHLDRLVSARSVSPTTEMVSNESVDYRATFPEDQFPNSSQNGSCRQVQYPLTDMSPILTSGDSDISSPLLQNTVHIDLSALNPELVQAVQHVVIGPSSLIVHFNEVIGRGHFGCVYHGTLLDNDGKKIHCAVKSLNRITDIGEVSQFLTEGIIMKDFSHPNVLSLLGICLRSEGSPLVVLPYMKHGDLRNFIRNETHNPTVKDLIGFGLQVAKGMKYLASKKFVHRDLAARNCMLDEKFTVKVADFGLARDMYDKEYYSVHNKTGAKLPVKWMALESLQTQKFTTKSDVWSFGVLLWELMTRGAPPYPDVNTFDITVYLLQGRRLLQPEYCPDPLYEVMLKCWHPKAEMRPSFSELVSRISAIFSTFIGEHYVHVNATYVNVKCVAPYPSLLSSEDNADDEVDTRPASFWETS
Chain of TRAF2 and NCK-interacting protein kinase (Homo sapiens) (Q9UKE5 whole entry, looked up): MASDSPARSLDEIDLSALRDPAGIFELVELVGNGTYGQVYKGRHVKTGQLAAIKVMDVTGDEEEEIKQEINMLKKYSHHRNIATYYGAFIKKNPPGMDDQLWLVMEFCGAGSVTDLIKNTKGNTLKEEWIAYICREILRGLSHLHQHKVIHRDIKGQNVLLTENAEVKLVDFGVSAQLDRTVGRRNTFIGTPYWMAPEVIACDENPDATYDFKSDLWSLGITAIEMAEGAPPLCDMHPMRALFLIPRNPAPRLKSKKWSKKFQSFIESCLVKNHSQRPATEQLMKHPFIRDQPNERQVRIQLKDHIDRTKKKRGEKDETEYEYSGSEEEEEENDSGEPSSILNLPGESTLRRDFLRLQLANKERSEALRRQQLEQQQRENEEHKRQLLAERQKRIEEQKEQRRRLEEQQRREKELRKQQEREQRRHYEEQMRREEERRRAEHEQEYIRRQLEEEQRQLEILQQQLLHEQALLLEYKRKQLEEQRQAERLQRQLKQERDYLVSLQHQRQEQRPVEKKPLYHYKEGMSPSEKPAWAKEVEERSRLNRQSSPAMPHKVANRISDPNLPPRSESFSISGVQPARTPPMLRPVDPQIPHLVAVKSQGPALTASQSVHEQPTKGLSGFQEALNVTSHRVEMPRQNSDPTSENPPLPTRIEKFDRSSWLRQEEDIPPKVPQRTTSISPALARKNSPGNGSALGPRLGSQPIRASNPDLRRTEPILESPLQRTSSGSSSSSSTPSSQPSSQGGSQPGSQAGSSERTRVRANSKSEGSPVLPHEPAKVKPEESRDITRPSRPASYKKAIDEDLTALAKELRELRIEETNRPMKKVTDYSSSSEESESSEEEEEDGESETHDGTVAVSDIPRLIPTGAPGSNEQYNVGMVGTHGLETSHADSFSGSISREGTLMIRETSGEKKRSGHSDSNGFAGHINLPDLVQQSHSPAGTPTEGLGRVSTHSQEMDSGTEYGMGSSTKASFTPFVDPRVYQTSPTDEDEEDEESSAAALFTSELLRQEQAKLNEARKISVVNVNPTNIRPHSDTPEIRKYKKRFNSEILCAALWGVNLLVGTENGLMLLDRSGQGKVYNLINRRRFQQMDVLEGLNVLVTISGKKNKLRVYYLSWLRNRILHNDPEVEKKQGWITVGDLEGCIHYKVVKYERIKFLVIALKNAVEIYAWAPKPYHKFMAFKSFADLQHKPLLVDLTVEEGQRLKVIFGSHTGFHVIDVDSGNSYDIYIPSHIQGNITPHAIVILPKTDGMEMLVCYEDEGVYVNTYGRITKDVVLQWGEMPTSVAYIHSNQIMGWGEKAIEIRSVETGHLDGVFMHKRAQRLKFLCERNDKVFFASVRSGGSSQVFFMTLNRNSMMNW
Chain of Serine/threonine-protein kinase Nek10 (Homo sapiens) (Q6ZWH5 whole entry): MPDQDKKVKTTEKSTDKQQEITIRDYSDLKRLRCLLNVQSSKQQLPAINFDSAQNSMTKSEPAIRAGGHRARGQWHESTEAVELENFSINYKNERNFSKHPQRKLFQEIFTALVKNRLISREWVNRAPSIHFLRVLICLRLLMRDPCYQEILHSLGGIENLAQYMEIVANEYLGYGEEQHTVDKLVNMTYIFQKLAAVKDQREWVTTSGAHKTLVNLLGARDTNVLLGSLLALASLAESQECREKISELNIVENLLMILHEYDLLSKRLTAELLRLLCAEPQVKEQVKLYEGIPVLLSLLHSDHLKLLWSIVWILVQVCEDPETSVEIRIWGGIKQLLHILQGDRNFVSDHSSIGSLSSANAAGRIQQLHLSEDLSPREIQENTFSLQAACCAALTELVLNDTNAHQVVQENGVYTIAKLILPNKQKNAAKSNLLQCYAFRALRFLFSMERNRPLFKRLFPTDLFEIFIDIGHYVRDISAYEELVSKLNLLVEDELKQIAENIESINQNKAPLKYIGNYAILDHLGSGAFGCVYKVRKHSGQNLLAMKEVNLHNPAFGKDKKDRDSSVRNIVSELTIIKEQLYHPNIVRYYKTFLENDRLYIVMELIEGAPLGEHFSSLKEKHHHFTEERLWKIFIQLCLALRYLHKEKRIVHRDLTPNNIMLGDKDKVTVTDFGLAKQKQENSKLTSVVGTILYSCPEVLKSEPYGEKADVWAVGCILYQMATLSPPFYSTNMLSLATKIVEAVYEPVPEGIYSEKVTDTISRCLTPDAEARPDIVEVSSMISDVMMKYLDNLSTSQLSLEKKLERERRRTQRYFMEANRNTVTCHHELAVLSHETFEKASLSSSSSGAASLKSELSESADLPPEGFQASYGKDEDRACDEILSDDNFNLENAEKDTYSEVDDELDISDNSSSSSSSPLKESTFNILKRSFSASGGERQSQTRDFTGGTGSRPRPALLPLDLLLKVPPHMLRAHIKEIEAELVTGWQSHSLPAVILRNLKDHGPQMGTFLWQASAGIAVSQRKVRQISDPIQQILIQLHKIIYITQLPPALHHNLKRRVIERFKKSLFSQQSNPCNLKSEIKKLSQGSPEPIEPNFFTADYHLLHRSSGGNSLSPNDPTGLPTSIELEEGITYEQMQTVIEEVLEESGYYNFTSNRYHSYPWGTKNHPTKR
Chain of Dual specificity protein kinase CLK1 (Homo sapiens) (P49759 whole entry, looked up): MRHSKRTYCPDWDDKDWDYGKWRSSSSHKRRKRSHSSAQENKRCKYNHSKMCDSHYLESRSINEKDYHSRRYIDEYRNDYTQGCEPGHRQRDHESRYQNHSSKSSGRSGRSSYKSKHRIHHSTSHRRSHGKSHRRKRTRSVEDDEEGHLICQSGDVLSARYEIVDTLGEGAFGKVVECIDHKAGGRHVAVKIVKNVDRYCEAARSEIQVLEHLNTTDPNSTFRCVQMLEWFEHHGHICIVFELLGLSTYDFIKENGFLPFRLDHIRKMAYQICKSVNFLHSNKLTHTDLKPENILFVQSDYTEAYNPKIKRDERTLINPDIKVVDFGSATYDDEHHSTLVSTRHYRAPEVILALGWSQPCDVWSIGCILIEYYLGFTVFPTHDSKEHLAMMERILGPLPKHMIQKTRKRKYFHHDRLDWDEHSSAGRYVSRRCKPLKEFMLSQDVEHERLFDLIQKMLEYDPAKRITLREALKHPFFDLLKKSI
Chain of Calcium/calmodulin-dependent protein kinase type 1 (Homo sapiens) (Q14012 whole entry, looked up): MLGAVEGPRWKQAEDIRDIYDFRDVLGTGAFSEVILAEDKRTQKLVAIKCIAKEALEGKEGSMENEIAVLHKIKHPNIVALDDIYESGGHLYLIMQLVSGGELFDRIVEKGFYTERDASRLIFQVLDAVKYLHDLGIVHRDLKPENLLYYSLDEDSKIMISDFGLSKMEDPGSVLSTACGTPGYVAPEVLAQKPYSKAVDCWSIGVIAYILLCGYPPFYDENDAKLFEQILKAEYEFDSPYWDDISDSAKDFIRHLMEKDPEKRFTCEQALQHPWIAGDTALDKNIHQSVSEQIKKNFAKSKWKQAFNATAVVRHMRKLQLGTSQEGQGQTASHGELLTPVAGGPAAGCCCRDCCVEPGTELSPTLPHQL

SMILES | inhibition [1] [%] | inhibition [2] [%] | inhibition [3] [%] | inhibition [4] [%] | residual activity [5] [%] | residual activity [6] [%] | residual activity [7] [%] | residual activity [8] [%] | residual activity [9] [%] | residual activity [10] [%] | residual activity [11] [%] | residual activity [12] [%] | residual activity [13] [%] | residual activity [14] [%] | residual activity [15] [%] | residual activity [16] [%] | residual activity [17] [%] | residual activity [18] [%] | residual activity [19] [%] | residual activity [20] [%] | further results
CNC(=O)Nc1ccc2c(c1)CC[C@@]21OC(=O)N(CC(=O)N(Cc2ccc(F)cc2)[C@@H](C)C(F)(F)F)C1=O [A-485] | 73 | 27 | 18 | -5 | 72 | 80 | 98 | 66 | 95 | 69 | 100 | 90 | 80 | 100 | 84 | 87 | 84 | 88 | 66 | 81 | residual activity [21]: 63%; residual activity [22]: 100%; residual activity [23]: 93%; residual activity [24]: 100%; residual activity [25]: 80%; residual activity [26]: 73%; inhibition [27]: 18%; inhibition [28]: 16.5%; inhibition [29]: 63.9%; inhibition [30]: 11.2%; inhibition [31]: 19.7%
CNC(=O)Nc1ccc2c(c1)[C@@]1(CC2)OC(=O)N(CC(=O)N(Cc2ccc(F)cc2)[C@@H](C)C(F)(F)F)C1=O [A-486] | 5 | 10 | 12 | 0 | 78 | 99 | 100 | 77 | 100 | 82 | 92 | 100 | 86 | 81 | 100 | 100 | 92 | 100 | 88 | 91 | residual activity [21]: 82%; residual activity [22]: 100%; residual activity [23]: 87%; residual activity [24]: 100%; residual activity [25]: 100%; residual activity [26]: 100%; inhibition [27]: 2.22%; inhibition [28]: -3.43%; inhibition [29]: -6.45%; inhibition [30]: 30.4%; inhibition [31]: 15.6%
